Experimental findings from ChEMBL document CHEMBL3045218, “Synthesis and Fungicidal Activities of Some 1-Aryloxyaceto-3-(5-aryl-1, 3, 4-oxadiazol-2-yl) thioureas and Corresponding Oxadiazolo [3, 2-a]-s-triazines” (1990) are described below.

Common to all, as to type: functional
Assay [1] relates to Bipolaris oryzae. The experiment in a line: Antifungal activity against Bipolaris oryzae assessed as fungus colony inhibition at 1000 ppm measured after 96 hr by agar dilution method. Background: Agar dilution tests growth on a series of plates holding different concentrations.
Assay [2] relates to Bipolaris oryzae. Put plainly: Antifungal activity against Bipolaris oryzae assessed as fungus colony inhibition at 10 ppm measured after 96 hr by agar dilution method.
The test system of assay [3] is Aspergillus niger. Put plainly: Antifungal activity against Aspergillus niger assessed as fungus colony inhibition at 100 ppm measured after 96 hr by agar dilution method.
For assay [4], the system named is Aspergillus niger. The experiment in a line: Antifungal activity against Aspergillus niger assessed as fungus colony inhibition at 1000 ppm measured after 96 hr by agar dilution method.
For assay [5], the system named is Aspergillus niger. Put plainly: Antifungal activity against Aspergillus niger assessed as fungus colony inhibition at 10 ppm measured after 96 hr by agar dilution method.
Assay [6] deals with Bipolaris oryzae. The experiment in a line: Antifungal activity against Bipolaris oryzae assessed as fungus colony inhibition at 100 ppm measured after 96 hr by agar dilution method.

As for `COc1ccc(-c2nn3c(COc4cccc(C)c4)nc(=S)nc3o2)cc1`, the inhibition (in general, the change of the read-out against control, counted positive when it falls) at 1000 ppm with Bipolaris oryzae [1] came out at 60.3%; in the assay on Aspergillus niger [4], 62.5%. Besides, the inhibition at 10 ppm in the assay with Bipolaris oryzae [2] is 30.4%; in the assay with Aspergillus niger [5], 32%. For the same molecule, the inhibition at 100 ppm in the assay on Aspergillus niger [3] worked out at 42.3%; in the assay with Bipolaris oryzae [6], 40.2%.

Consider `Cc1cccc(OCC(=O)NC(=S)Nc2nnc(-c3ccccc3)o2)c1`, for which the inhibition at 1000 ppm amounted to 69.8% with Bipolaris oryzae [1] and 71.3% in the assay with Aspergillus niger [4]. Besides, the inhibition at 10 ppm was determined as 36.6% in the assay with Bipolaris oryzae [2] and 34.7% with Aspergillus niger [5]. Further, the inhibition at 100 ppm in the assay on Aspergillus niger [3] stood at 50.2%; in the assay with Bipolaris oryzae [6] it was 50.4%.

On to `O=C(COc1ccccc1[N+](=O)[O-])NC(=S)Nc1nnc(-c2ccccc2)o1`, for which the inhibition at 1000 ppm stood at 80.2% with Bipolaris oryzae [1] and 85.6% in the assay with Aspergillus niger [4]. The inhibition at 10 ppm came to 51.6% in the assay on Bipolaris oryzae [2] and 54.8% in the assay on Aspergillus niger [5]. For the same molecule, the inhibition at 100 ppm with Aspergillus niger [3] was 68.4%; in the assay with Bipolaris oryzae [6], 65.4%.

Turning to `COc1ccc(-c2nn3c(COc4ccc([N+](=O)[O-])cc4)nc(=S)nc3o2)cc1`, the inhibition at 1000 ppm with Bipolaris oryzae [1] is 77.9%; in the assay with Aspergillus niger [4], 75.8%. The inhibition at 10 ppm in the assay with Bipolaris oryzae [2] stood at 48.5%; in the assay on Aspergillus niger [5], 41.5%. For the same molecule, the figures for the inhibition at 100 ppm with Aspergillus niger [3] and in the assay with Bipolaris oryzae [6] were 58.5% and 60.5%, respectively.

For `Cc1ccc(OCC(=O)NC(=S)Nc2nnc(-c3ccccc3)o2)cc1`, the inhibition at 1000 ppm with Bipolaris oryzae [1] is 70.1%; with Aspergillus niger [4] it was 72.2%. In addition, the results for the inhibition at 10 ppm with Bipolaris oryzae [2] and with Aspergillus niger [5] were 37.2% and 35.8%, respectively. The values for the inhibition at 100 ppm in the assay with Aspergillus niger [3] and in the assay with Bipolaris oryzae [6] were 52.6% and 50.8%, respectively.

For `COc1ccc(-c2nn3c(COc4ccc(C)cc4)nc(=S)nc3o2)cc1`, the inhibition at 1000 ppm in the assay on Bipolaris oryzae [1] was found to be 60.8%; in the assay on Aspergillus niger [4], 62.3%. For the same molecule, the inhibition at 10 ppm in the assay on Bipolaris oryzae [2] was 30.9%; with Aspergillus niger [5], 32.6%. Moreover, the inhibition at 100 ppm was found to be 42.7% in the assay with Aspergillus niger [3] and 40.5% in the assay with Bipolaris oryzae [6].

In the case of `COc1ccc(-c2nn3c(COc4cc(C)ccc4C(C)C)nc(=S)nc3o2)cc1`, the inhibition at 1000 ppm with Bipolaris oryzae [1] came out at 80.2%; in the assay on Aspergillus niger [4] it was 82.5%. In addition, the inhibition at 10 ppm in the assay on Bipolaris oryzae [2] amounted to 52.3%; in the assay on Aspergillus niger [5], 52.6%. Further, the inhibition at 100 ppm in the assay with Aspergillus niger [3] is 66.4%; in the assay with Bipolaris oryzae [6], 64.8%.

Turning to `Cc1ccc(C(C)C)c(OCc2nc(=S)nc3oc(-c4ccccc4)nn23)c1`, the values for the inhibition at 1000 ppm with Bipolaris oryzae [1] and with Aspergillus niger [4] were 74.8% and 78.6%, respectively. The results for the inhibition at 10 ppm in the assay on Bipolaris oryzae [2] and with Aspergillus niger [5] were 48.6% and 48.2%, respectively. For the same molecule, the inhibition at 100 ppm in the assay with Aspergillus niger [3] was 62.1%; in the assay with Bipolaris oryzae [6], 60.4%.

Take `O=C(COc1ccc([N+](=O)[O-])cc1)NC(=S)Nc1nnc(-c2ccccc2)o1`: the inhibition at 1000 ppm in the assay on Bipolaris oryzae [1] was 81.2%; in the assay with Aspergillus niger [4], 85.2%. In addition, the inhibition at 10 ppm in the assay with Bipolaris oryzae [2] stood at 50.8%; with Aspergillus niger [5], 54.3%. Besides, the inhibition at 100 ppm in the assay with Aspergillus niger [3] is 67.9%; with Bipolaris oryzae [6], 64.7%.

Consider `COc1ccc(-c2nnc(NC(=S)NC(=O)COc3cc(C)ccc3C(C)C)o2)cc1`, for which the figures for the inhibition at 1000 ppm in the assay with Bipolaris oryzae [1] and with Aspergillus niger [4] were 70.8% and 72.4%, respectively. Further, the inhibition at 10 ppm in the assay with Bipolaris oryzae [2] was determined as 40.2%; in the assay on Aspergillus niger [5], 46.3%. Also, the inhibition at 100 ppm in the assay on Aspergillus niger [3] came to 61.6%; in the assay with Bipolaris oryzae [6], 50.9%.

For `COc1ccc(-c2nnc(NC(=S)NC(=O)COc3ccc(C)cc3)o2)cc1`, the inhibition at 1000 ppm amounted to 75.3% in the assay on Bipolaris oryzae [1] and 76.3% in the assay on Aspergillus niger [4]. For the same molecule, the figures for the inhibition at 10 ppm with Bipolaris oryzae [2] and with Aspergillus niger [5] were 38.5% and 39.2%, respectively. Besides, the inhibition at 100 ppm came out at 56.9% with Aspergillus niger [3] and 55.6% in the assay with Bipolaris oryzae [6].

Take `Cc1ccc(C(C)C)c(OCC(=O)NC(=S)Nc2nnc(-c3ccccc3)o2)c1`: the inhibition at 1000 ppm in the assay on Bipolaris oryzae [1] turned out to be 66.6%; in the assay with Aspergillus niger [4], 69.3%. Moreover, the inhibition at 10 ppm in the assay with Bipolaris oryzae [2] turned out to be 31.8%; in the assay on Aspergillus niger [5], 33.7%. For the same molecule, the inhibition at 100 ppm with Aspergillus niger [3] was determined as 48.2%; in the assay with Bipolaris oryzae [6], 45.3%.

For `COc1ccc(-c2nnc(NC(=S)NC(=O)COc3cccc(C)c3)o2)cc1`, the inhibition at 1000 ppm with Bipolaris oryzae [1] came to 75.6%; in the assay on Aspergillus niger [4], 77.2%. Also, the results for the inhibition at 10 ppm in the assay with Bipolaris oryzae [2] and with Aspergillus niger [5] were 40.5% and 39.4%, respectively. Further, the inhibition at 100 ppm with Aspergillus niger [3] turned out to be 55.3%; in the assay with Bipolaris oryzae [6], 56.4%.

For the molecule `Cc1ccc(OCc2nc(=S)nc3oc(-c4ccccc4)nn23)cc1`, the figures for the inhibition at 1000 ppm in the assay on Bipolaris oryzae [1] and in the assay on Aspergillus niger [4] were 72.6% and 75.3%, respectively. In addition, the inhibition at 10 ppm stood at 40.3% in the assay with Bipolaris oryzae [2] and 40.9% in the assay with Aspergillus niger [5]. Moreover, the inhibition at 100 ppm in the assay on Aspergillus niger [3] was 56.7%; in the assay on Bipolaris oryzae [6], 52.5%.

For the molecule `COc1ccc(-c2nnc(NC(=S)NC(=O)COc3ccc([N+](=O)[O-])cc3)o2)cc1`, the values for the inhibition at 1000 ppm in the assay on Bipolaris oryzae [1] and in the assay with Aspergillus niger [4] were 75.2% and 78.7%, respectively. In addition, the inhibition at 10 ppm in the assay on Bipolaris oryzae [2] is 47.4%; with Aspergillus niger [5], 50.2%. Further, the inhibition at 100 ppm with Aspergillus niger [3] is 64.1%; in the assay on Bipolaris oryzae [6], 61.6%.

On to `O=[N+]([O-])c1ccccc1OCc1nc(=S)nc2oc(-c3ccccc3)nn12`, for which the inhibition at 1000 ppm in the assay with Bipolaris oryzae [1] worked out at 74.4%; with Aspergillus niger [4], 70.2%. Moreover, the inhibition at 10 ppm in the assay on Bipolaris oryzae [2] worked out at 40.2%; in the assay on Aspergillus niger [5] it was 40.3%. Further, the inhibition at 100 ppm in the assay on Aspergillus niger [3] is 52.2%; in the assay on Bipolaris oryzae [6], 55.4%.

Regarding `O=[N+]([O-])c1ccc(OCc2nc(=S)nc3oc(-c4ccccc4)nn23)cc1`, the inhibition at 1000 ppm amounted to 73.4% in the assay on Bipolaris oryzae [1] and 71.2% in the assay on Aspergillus niger [4]. In addition, the inhibition at 10 ppm with Bipolaris oryzae [2] amounted to 41.5%; in the assay on Aspergillus niger [5] it was 40.7%. In addition, the inhibition at 100 ppm was found to be 53.3% in the assay with Aspergillus niger [3] and 56.2% with Bipolaris oryzae [6].

Turning to `Cc1cccc(OCc2nc(=S)nc3oc(-c4ccccc4)nn23)c1`, the values for the inhibition at 1000 ppm in the assay on Bipolaris oryzae [1] and with Aspergillus niger [4] were 72.5% and 76.2%, respectively. Besides, the inhibition at 10 ppm was 36.7% in the assay with Bipolaris oryzae [2] and 41.5% in the assay on Aspergillus niger [5]. The inhibition at 100 ppm in the assay on Aspergillus niger [3] came to 57.3%; in the assay with Bipolaris oryzae [6] it was 53.2%.
